Patent publication US20250295639A1, “METHODS FOR TREATING HEART DISEASES” (Cytokinetics, Incorporated, priority 2024, published 2025)

System: patients with symptomatic oHCM
Assay: SEQUOIA-HCM: patient-reported health status KCCQ-OSS and SAQ-SS
Type: in vivo, human
Method: Effect of Aficamten on Patient-Reported Health Status in Obstructive Hypertrophic Cardiomyopathy. Participants were randomized to aficamten or placebo with standard-of-care therapy for 24 weeks followed by a 4-week washout period. The Kansas City Cardiomyopathy Questionnaire (KCCQ) and Seattle Angina Questionnaire (SAQ) were administered at each study visit. Changes in mean KCCQ Overall Summary score (KCCQ-OSS) and SAQ Summary score (SAQ-SS) from baseline to week 24 were compared by treatment group using linear regression, adjusting for randomization strata. Proportions of patients with clinically important changes were compared.

[1] = aficamten arm, week 28 compared with week 24

CCc1nc(-c2ccc3c(c2)CC[C@H]3NC(=O)c2cnn(C)c2)no1 [aficamten, (R)—N-(5-(5-ethyl-1,2,4-oxadiazol-3-yl)-2,3-dihydro-1H-inden-1-yl)-1-methyl-1H-pyrazole-4-carboxamide]
change in KCCQ-OSS after treatment withdrawal [1]: −16.2±19.0 | change in SAQ-OSS after treatment withdrawal [1]: −17.4±21.4 | 24-week improvement in KCCQ-OSS (mean±SD) (aficamten group): 13.3±16.3 | 24-week improvement in SAQ-SS (mean±SD) (aficamten group): 11.6±17.4 | patients with very large improvements (≥20 points) in KCCQ-OSS (aficamten-treated, week 24): 29.7% | patients with very large improvements (≥20 points) in SAQ-SS (aficamten-treated, week 24): 31.2% | heterogeneity of treatment benefit (KCCQ-OS, SAQ-SS) across subgroups incl. beta-blocker use at baseline (human, in vivo): No heterogeneity of treatment benefit | SAQ-SS improvement with aficamten (subgroup baseline SAQ-SS 75-100): 4.2 | greater change with aficamten in SAQ-SS (subgroup baseline SAQ-SS<50): 15.6 points | very large improvement in KCCQ-OSS, NNT (vs placebo): 5.8 | very large improvement in SAQ-SS, NNT (vs placebo): 5.8
